Assay results from patent publication US8357377B2, “Cyclodextrin-based materials, compositions and uses related thereto” (priority 2002, dated 2013).

Assay: Rat PVA sponge model, morphological analysis (Masson's Trichrome sections)
Design: species or system Harlan Sprague-Dawley rats
Conditions: in vivo
Protocol: Six small incisions (0.5 cm) were performed and polyvinyl alcohol (PVA, M-PACTO®) sponges were subcutaneously implanted on the ventral side of male Harlan Sprague-Dawley rats.
Four days after implantation, test and control materials were diluted with vPBS and liquid collagen (Cohesion Technologies®) or 58 kD Cyclodextrin (CD)-Adamantane matrix as described above and injected into PVA sponges. Final collagen formulation was 1.8 mg/mL, pHed with NaOH, and brought up to volume with vPBS. Final 58 kD Cyclodextrin (CD)-Adamantane matrix formulation was 100 mg/mL. 200 μL total volume of test reagent was delivered to each sponge. Animals were sacrificed and sponges were removed 2 days after injections. Sponges were cut into three pieces and the majority of the sponge (˜70-80%) was frozen in liquid nitrogen and stored at −80° C. for QPCR and QRT-PCR analysis. A small portion of the sponge was fixed in 4% PFA at 4° C. for 18 hours, paraffin embedded, and sectioned (5 μm). Sections were stained using Masson's Trichrome (cells=black, vasculature=red, and collagen=blue) and Hematoxylin-Eosin methods. Tissue sections were analyzed microscopically for gross histology by two separate investigators.
5 μm, Masson's Trichrome stained paraffin sections were analyzed by two separate observers. Sponge characteristics were qualitatively evaluated by the following criteria: Minimal<Light<Moderate<Heavy<Severe for all categories except Capsule Size. The following criteria were used for evaluation of Capsule Size: Thin<Moderate<Thick<Very Thick.

- Capsule Size: Thin
- Immune Response: Minimal
- Immune response (gross histological examination): minimal immune response
Substance: Collagen
